Test results from patent publication US20090209460A1, “COMPOSITIONS AND METHODS FOR TREATING OBESITY AND RELATED METABOLIC DISORDERS” (Amylin Pharmaceuticals, Inc., priority 2005, published 2009).
Residues, ends and D or L forms follow the SMILES beside them.

Assays:
NIH/Swiss mice = test: acute food intake assay, lean overnight-fasted NIH/Swiss mice, intraperitoneal injection; format: in vivo, mouse; settings: for Activity (percent decrease in cumulative food intake compared to the vehicle), AUC: intraperitoneal, timepoint 120 min
Summary of the method: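 Overnight-fasted lean female NIH/Swiss mice (8-24 weeks, group housed) received vehicle or peptide intraperitoneally at time 0, then pre-weighed standard chow. Food consumed was weighed at 30, 60 and 120 min and expressed as % change versus control.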

over-night fasted rats = test: food intake in over-night fasted rats, given intraperitoneally; format: in vivo, rat; settings: 0.1 to 1.5 mg/kg, 30 and 60 minutes
Description: FN38 in vehicle (10% DMSO in saline) was administered at 0.1 to 1.5 mg/kg. The food intake in grams and as a percent of vehicle are presented in FIGS. 4A and 4B at 30 and 60 minutes, respectively. FIG. 4C presents the same data plotted as grams of food consumed (intake) versus time. The results cannot be attributed to a locomotor effect (data not shown).

[1] = brush border membrane (BBM) stability assay; format: in vitro ADME, human
Summary of the method: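 Peptides digested up to 5 h at 37 °C with human brush border membrane extract (e.g. kidney). Timepoints quenched with 50% ACN, 1% FA, centrifuged, intact peptide quantified by selected-ion mass spectrometry. Expressed as percent stable.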

[2] = cumulative weight gain in rats with diet induced obesity (rat DIO), subcutaneous pump for seven days; format: in vivo; settings: subcutaneously continuously by pump for seven days
Description: Both compounds were administered subcutaneously continuously by pump for seven days at the rate and dosage indicated.

[3] = body weight and food intake in mice with diet induced obesity (mouse DIO), osmotic pump; format: in vivo; settings: mouse DIO
Description: The effect of FN38 and related compounds on body weight and food intake in obese subjects was investigated. Mice having diet induced obesity (DIO) were used. All in vivo tests were performed with peripheral injections of peptide. […] 4-week-old male C57BL/6 mice were group housed with water and a standard pelleted mouse chow diet available ad libitum, except as noted, and were maintained on a on a high fat diet (58% kcal from fat) for 4 weeks prior to the experiment. At the end of fattening period, osmotic pumps were implanted interscapularly under anesthesia. Mice received pumps continuously delivering vehicle (50% DMSO in water or saline) or polypeptide at the dose indicated. Food intake and body weight measurements were obtained weekly.

DPP-IV = DPP-IV (Homo sapiens, UniProt P27487); test: DPP-IV degradation; format: in vitro ADME; settings: isolated DPP-IV peptidase, 25 mM HEPES buffer, 37 degrees C., 10 mM peptide, read-out: intact after contact with DPP-IV
Chain of DPP-IV (P27487 whole entry, species assumed): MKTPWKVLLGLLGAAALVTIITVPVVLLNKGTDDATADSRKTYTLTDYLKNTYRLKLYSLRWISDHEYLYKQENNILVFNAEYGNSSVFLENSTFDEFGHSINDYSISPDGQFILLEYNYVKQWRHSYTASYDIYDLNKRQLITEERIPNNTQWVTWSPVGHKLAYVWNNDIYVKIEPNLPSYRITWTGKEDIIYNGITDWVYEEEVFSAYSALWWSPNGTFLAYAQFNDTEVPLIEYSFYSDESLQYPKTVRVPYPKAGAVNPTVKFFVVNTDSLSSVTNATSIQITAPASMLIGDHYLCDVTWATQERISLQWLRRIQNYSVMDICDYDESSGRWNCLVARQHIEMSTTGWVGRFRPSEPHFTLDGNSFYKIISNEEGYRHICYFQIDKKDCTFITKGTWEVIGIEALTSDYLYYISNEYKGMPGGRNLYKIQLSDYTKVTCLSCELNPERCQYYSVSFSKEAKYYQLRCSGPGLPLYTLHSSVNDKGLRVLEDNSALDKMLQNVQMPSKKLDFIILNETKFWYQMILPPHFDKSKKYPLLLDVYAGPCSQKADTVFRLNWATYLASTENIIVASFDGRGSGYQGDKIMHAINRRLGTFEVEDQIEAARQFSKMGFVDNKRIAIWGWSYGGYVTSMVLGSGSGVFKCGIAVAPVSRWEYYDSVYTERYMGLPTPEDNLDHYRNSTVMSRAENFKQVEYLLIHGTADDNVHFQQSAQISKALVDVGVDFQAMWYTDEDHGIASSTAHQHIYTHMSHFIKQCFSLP
Description: Peptide and peptidase were incubated in 25 mM HEPES buffer at 37 degrees C. at 10 mM peptide.

With `CC(C)C[C@H](NC(=O)[C@H](CCCCN)NC(=O)[C@H](CCC(N)=O)NC(=O)[C@@H](NC(=O)[C@H](CCCCN)NC(=O)[C@H](CO)NC(=O)[C@H](Cc1ccc(O)cc1)NC(=O)[C@H](Cc1c[nH]cn1)NC(=O)[C@H](Cc1ccccc1)NC(=O)[C@H](CC(C)C)NC(=O)[C@@H](N)Cc1ccccc1)[C@@H](C)O)C(=O)NCC(=O)N[C@@H](CCCCN)C(=O)N[C@@H](CO)C(=O)N[C@@H](CC(N)=O)C(=O)N[C@H](C(=O)N[C@H](C(=O)N[C@@H](CCC(=O)O)C(=O)N[C@@H](CCC(=O)O)C(=O)N[C@@H](CC(C)C)C(=O)N[C@@H](CCC(N)=O)C(=O)N[C@@H](CO)C(=O)N1CCC[C@H]1C(=O)N[C@@H](Cc1ccccc1)C(=O)N[C@@H](C)C(=O)N[C@@H](CO)C(=O)N[C@@H](CCC(N)=O)C(=O)N[C@@H](CO)C(=O)N[C@@H](CCCNC(=N)N)C(=O)NCC(=O)N[C@@H](Cc1ccc(O)cc1)C(=O)N[C@@H](Cc1ccccc1)C(=O)N[C@@H](CC(C)C)C(=O)N[C@@H](Cc1ccccc1)C(=O)N[C@@H](CCCNC(=N)N)C(=O)N1CCC[C@H]1C(=O)N[C@@H](CCCNC(=N)N)C(=O)N[C@@H](CC(N)=O)C(N)=O)C(C)C)C(C)C` [Compound 163661] (H-FLFHYSKTQKLGKSNVVEELQSPFASQSRGYFLFRPRN-NH2; N-terminus assumed) the “reduction of food intake” value (NIH/Swiss mice; administered systemically (i.p. to mice), dose and time not stated) was 64%, the “FI (60′, 200)” value (NIH/Swiss mice; food intake, % change relative to control, 60 min, dose 200) was 0% and the “ED50 at t = 60” value (NIH/Swiss mice; food intake, t = 60) was 4 nmol/kg. For the same compound, the “Activity (percent decrease in cumulative food intake compared to the vehicle), AUC” value (NIH/Swiss mice; dose 0.3 nmol/kg) was 0%, the “Activity (percent decrease in cumulative food intake compared to the vehicle), AUC” value (NIH/Swiss mice; dose 1 nmol/kg) was −23% and the “Activity (percent decrease in cumulative food intake compared to the vehicle), AUC” value (NIH/Swiss mice; dose 3 nmol/kg) was −25%. The “Activity (percent decrease in cumulative food intake compared to the vehicle), AUC” value (NIH/Swiss mice; dose 10 nmol/kg) was −48%, the “Activity (percent decrease in cumulative food intake compared to the vehicle), AUC” value (NIH/Swiss mice; dose 30 nmol/kg) was −58% and the “Activity (percent decrease in cumulative food intake compared to the vehicle), AUC” value (NIH/Swiss mice; dose 100 nmol/kg) was −72%. The “Activity (percent decrease in cumulative food intake compared to the vehicle), AUC” value (NIH/Swiss mice; dose 300 nmol/kg) was −60%, the “Activity (percent decrease in cumulative food intake compared to the vehicle), AUC” value (NIH/Swiss mice; dose 1000 ug/kg) was −46% and the “Food Intake Inhibition” value (NIH/Swiss mice; mouse assay, dose of 200 mg/kg, measured at 60 minutes) was −46%. For the same compound, the “ED50 for effect on food intake” value (NIH/Swiss mice; over 30 min, i.p., mice) was 8.6 nmol/kg, the “effect on food intake in over-night fasted rats” value (over-night fasted rats) was “inhibiting food intake” and the remaining at 5 h ([1]; brush border membrane extract (e.g. kidney), percent compound remaining after a 5 hour incubation, human brush border membrane assay, read-out: hBBM) was 62%. For the same compound, the BBM ([1]; percent of stable, human brush border membrane extracts, five hours, 37° C.) was 62%, the “cumulative weight gained in rat DIO (FIG. 5)” value [2] was “reduction of cumulative weight gained” and the “d 2 BWt loss” value ([3]; day 2) was 6.5%. For the same compound, the “d 7 BWt loss” value ([3]; day 7) was 4.3% and the remaining at 50 min, 10 mM (DPP-IV) was about 100%.
